± gives the expanded uncertainty stated by the source.
Assay: wn = mass fraction of the nth substance listed
Conditions: 393.15 K, Liquid; for viscosity: Falling or rolling sphere viscometry; for mass density: Vibrating tube method

OCCN(CCO)CCO [triethanolamine] + O
Conditions	mass density, w1 = 0.0992 [kg/m3]	mass density, w1 = 0.2 [kg/m3]	mass density, w1 = 0.2991 [kg/m3]	mass density, w1 = 0.4 [kg/m3]	viscosity, w1 = 0.0992 [mPa·s]	viscosity, w1 = 0.2 [mPa·s]	viscosity, w1 = 0.2991 [mPa·s]	viscosity, w1 = 0.4 [mPa·s]
10000 kPa	961.1 ± 0.7	974.2 ± 0.7	988 ± 0.7	1003.1 ± 0.7	–	–	0.4583 ± 0.015	0.5948 ± 0.02
15000 kPa	963.4 ± 0.7	976.5 ± 0.7	990.3 ± 0.7	1005.4 ± 0.7	0.2933 ± 0.0096	0.3633 ± 0.012	0.4629 ± 0.015	0.6019 ± 0.02
20000 kPa	965.9 ± 0.7	978.9 ± 0.7	992.7 ± 0.7	1007.8 ± 0.7	0.295 ± 0.0097	0.362 ± 0.012	0.4675 ± 0.015	0.609 ± 0.02
25000 kPa	–	–	–	–	0.2963 ± 0.0097	0.3674 ± 0.012	0.4703 ± 0.015	0.6136 ± 0.02
30000 kPa	970.4 ± 0.7	983.5 ± 0.7	997.3 ± 0.7	1012.4 ± 0.7	0.2988 ± 0.0098	0.3659 ± 0.012	0.4738 ± 0.016	0.6246 ± 0.021
40000 kPa	974.9 ± 0.7	988 ± 0.7	1001.8 ± 0.7	1016.7 ± 0.7	0.3022 ± 0.0099	0.3704 ± 0.012	0.4822 ± 0.016	0.6362 ± 0.021
50000 kPa	979.2 ± 0.7	992.3 ± 0.7	1006 ± 0.7	1021 ± 0.7	–	–	–	–
60000 kPa	983.5 ± 0.7	996.5 ± 0.7	1010.2 ± 0.7	1025.2 ± 0.7	0.308 ± 0.01	0.3798 ± 0.013	0.4973 ± 0.016	0.6588 ± 0.022
70000 kPa	987.7 ± 0.7	1000.7 ± 0.7	1014.4 ± 0.7	1029.3 ± 0.7	–	–	–	–
80000 kPa	991.7 ± 0.7	1004.6 ± 0.7	1018.3 ± 0.7	1033.1 ± 0.7	0.3138 ± 0.01	0.3888 ± 0.013	0.5121 ± 0.017	0.6835 ± 0.023
90000 kPa	995.7 ± 0.7	1008.6 ± 0.7	1022.3 ± 0.7	1037.1 ± 0.7	–	–	–	–
100000 kPa	999.4 ± 0.7	1012.3 ± 0.7	1026.1 ± 0.7	1040.7 ± 0.7	0.32 ± 0.01	0.3982 ± 0.013	0.5378 ± 0.018	0.7054 ± 0.023
110000 kPa	1003.3 ± 0.7	1016.1 ± 0.7	1029.8 ± 0.7	1044.5 ± 0.8	–	–	–	–
120000 kPa	1006.9 ± 0.7	1019.8 ± 0.7	1033.4 ± 0.7	1048.1 ± 0.8	–	–	–	–
130000 kPa	1010.4 ± 0.7	1023.4 ± 0.7	1036.9 ± 0.7	1051.5 ± 0.8	–	–	–	–
140000 kPa	1014.1 ± 0.7	1026.9 ± 0.7	1040.5 ± 0.8	1055 ± 0.8	–	–	–	–

Source: the NIST ThermoML archive (doi:10.1016/j.jct.2017.05.001)
